This is an account of results in patent US7776849B2, “Benzenoid ansamycin derivative” (Kyowa Hakko Kirin Co., Ltd., priority 2005, dated 2010).

The test system of assay [1] is human chronic myelocytic leukemia K562 cells. Kind of assay: Growth inhibition test on human chronic myelocytic leukemia K562 cells (WST-1). It counts as cell-based. As to conditions: 72 hours, read-out: 50% growth inhibitory concentration (GI50). Here is the method:
Growth Inhibition Test on Human Chronic Myelocytic Leukemia K562 Cells
First, 1,500 cells of human chronic myelocytic leukemia K562 were inoculated into each well of a 96-well microplate (manufactured by Nunc Corp.), and using RPMI1640 medium containing 10% fetal calf serum (FCS), preculturing was performed in a 5% carbon dioxide incubator at 37° C. for 5 hours. A DMSO solution of each test compound prepared in a concentration of 10 mmol/L was stepwise diluted with the culture medium and added thereto in a total amount of 100 μL/well. The resulting wells were further cultured in the 5% carbon dioxide incubator at 37° C. for 72 hours. […] Using a microplate spectrophotometer (SpectraMax 340PC384; manufactured by Molecular Devices), the absorbance of each well was measured at 450 nm and 655 nm. […] The value obtained by subtracting the absorbance at 655 nm from the absorbance at 450 nm (absorbance difference) was calculated for each well. The absorbance difference obtained from cells untreated with any of the test compounds was designated as 100%. The absorbance difference obtained from cells treated with the compounds at the test concentrations was compared. […]
In general terms: Formazan colour is commonly taken as a measure of viable cells.

Assay [2] deals with T1, Human N-terminal recombinant Hsp90 protein (region of amino acids 9 to 236) (Homo sapiens, UniProt P07900).
T1 construct: Human N-terminal recombinant Hsp90 protein (region of amino acids 9 to 236); made in house
Kind of assay: Hsp90 protein binding assay (competition with biotinylated Radicicol, time-resolved fluorescence). As to conditions: immobilized Hsp90, biotinylated Radicicol 0.1 μmol/L, 24° C.; read-out: concentration inhibiting the binding of biotinylated Radicicol to the Hsp90 protein by 50% or more. Here is the method:
Hsp90 Protein Binding Assay
Human N-terminal recombinant Hsp90 protein (region of amino acids 9 to 236) prepared according to the method described in “Cell”, 1997, Vol. 89, p. 239-250 was diluted to 1 μg/mL with Tris-buffered saline (TBS, pH 7.5) and added to each well of a 96-well ELISA assay plate (Greiner) in an amount of 70 μL/well. The plate was incubated overnight at 4° C. to obtain the solid phase.
The supernatant was removed, and Tris-buffered saline containing 1% bovine serum albumin (BSA) was added in an amount of 350 μL/well for blocking.
After the blocking solution was removed, each resulting solid phase was washed by the addition of Tris-buffered saline containing 0.05% Tween 20 (TBST) in an amount of 350 μL/well. This washing procedure was repeated three times. […]
Enhancement solution (Wallac Oy) was added thereto in an amount of 100 μL/well and color developing reaction was carried out at room temperature for 5 minutes, followed by measurement of time-resolved fluorescence (excitation wavelength: 340 nm, measurement wavelength: 615 nm) using Multilabel Counter (ARVO 1420, Wallac Oy).
The binding rate in each well treated the test compound was calculated from the time-resolved fluorescence measured for each well based on the time-resolved fluorescence measured with the positive control taken as 100% binding rate and that with the negative control taken as 0% binding rate.

In the case of `COC1C=CC=C(C)C(=O)Nc2cccc(c2O)C(OC)C(C)CC(OC)C(OC)C(C)C=C(C)C1OC(N)=O` (stereo not drawn) [Compound 2], the GI50 in assay [1] is at most 10 µM. In addition, in assay [2], the IC50 is at most 10 µM.
Turning to `COC1/C=C\C=C(/C)C(=O)Nc2cc(O)cc(c2O)C(OC)C(C)CC(OC)C(OC)C(C)/C=C(\C)C1OC(N)=O` (stereo not drawn) [Compound 1], the IC50 in assay [2] was at most 10 µM.
